The results in this text go back to publication PMC10344917, “Affinity and cooperativity modulate ternary complex formation to drive targeted protein degradation” (Nature Communications, 2023).

Assay [1] deals with T1, VBC / SMARCA2^BD ternary complex (Homo sapiens, UniProt P40337+P51531).
T1 construct: VHL (54-213), ElonginB (17-112) ElonginC (1-104); SMARCA2^BD 1373–1511 ∆1400–1417; His6 (N, cleaved yes); made in house
As to the kind of experiment: SPR ternary complex binding, VBC surface with preformed PROTAC/SMARCA2 bromodomain complex. The conditions noted are these: for Kd: SPR, VHL, PROTAC, error SEM, N = 3, read-out: KLPT (ternary complex binding affinity). Here is the method:
SPR experiments were performed on a Biacore 8 K or T200 instrument (Cytiva). […] The running buffer during immobilization was PBS with 0.005% P20. Either high-density (3000-4000 RU) or low-density (300-400 RU) VBC-functionalized surfaces were created, followed by equilibration in the running buffer for 3 h.
PROTACs (10 mM in 100% DMSO) were initially prepared at 200 nM in a running buffer (20 mM Tris pH 8.0, 250 mM NaCl, 1 mM TCEP, 0.01% P20, 0.2 mg/ml BSA) with a concentration of 2% DMSO. This solution was mixed at 1:1 ratio with a solution of 5 μM of the SMARCA2 or BRD4 bromodomain protein in the running buffer. This complex was then serially diluted in the running buffer containing 2.5 μM SMARCA2 or BRD4 and 2% DMSO (5-point five-fold serial dilution). For ternary experiments, solutions were injected sequentially in single-cycle kinetic format without regeneration (contact time 60 s, flow rate 80 μL/min, dissociation time 300 s) using a stabilization period of 60 s and syringe wash (50% DMSO) between injections onto a low-density VBC-functionalized surface.
(§1) Raw sensorgrams were processed by performing double reference subtraction, solvent correction, and analysis was done using Biacore Insight Evaluation Software. Kinetic analysis was performed by fitting data to a 1:1 Langmuir interaction model and a steady-state affinity model was used to evaluate equilibrium binding affinity.

Another assay concerns the target T2, SMARCA2^BD (Homo sapiens, UniProt P51531).
T2 construct: SMARCA2^BD 1373–1511 ∆1400–1417; made in house
As to the kind of experiment: SPR binary binding of PROTAC to SMARCA2-functionalized surface. The note with it: 1:1 Langmuir binding model, SEM N=3 or SD N=2, read-out: KTP (binary affinity PROTAC / SMARCA2). How it is done: PROTACs (10 mM stocks in 100% DMSO) were diluted to 400 nM in a running buffer (20 mM Tris pH 7.5, 200 mM NaCl, 0.02% P20). This stock solution was then serially diluted in the running buffer containing final 2% DMSO. Solutions were injected in multi-cycle kinetic format without regeneration (contact time 60 s, flow rate 80 μL/min, dissociation time 120 s) using a stabilization period of 30 s and syringe wash (50% DMSO) between injections onto a high-density VBC-functionalized surface. For SMARCA2 analysis, biotinylated proteins were introduced on a Series S streptavidin (SA) sensor chip at high-density (3000-4000 RU).
as §1

Another assay deals with T3, SMARCA2 (Homo sapiens, UniProt P51531).
T3 construct: endogenous in cells; host or cells: A375
As to the kind of experiment: SMARCA2 degradation time course in A375 cells (MSD). It is filed as cell-based. The conditions noted are these: single concentration at or near maximal activity. The text has this: This characteristic has been described as cooperativity (α > 1) and likely results from favorable PPIs present in the ternary complex. […] To measure the rate of protein degradation, we treated A375 cells with a single concentration of each PROTAC and measured the decrease in target abundance over time as shown in Figs. 4b and5b.
MSD electrochemiluminescence signals were subtracted by the average background signal from wells with lysis buffer alone. Normalized MSD values (POC) for individual compound treated wells were acquired by dividing background-subtracted assay signal by signal from vehicle control wells (cells + 0.1% DMSO) and multiplying by 100. This POC data was graphed using a nonlinear regression curve fit xy analysis and a log(inhibitor) vs response —variable slope (four parameter) model for dose response curves (Graphpad Prism 9, San Diego, CA, USA). To calculate area under the curve, all points on the curve were connected and vertical lines were drawn from each point down to y = 0, generating a series of trapezoids. The area of each trapezoid was determined using the equation A = (1/2)(h)(b1 + b2), where h = 1 (distance between points), b1 = POC of the first point and b2 = POC of the second point. The sum of all trapezoids provides an approximate area under the curve (AUC). For half-life (t1/2) determination in time course studies, a one-phase decay model was used for curve fitting and the time at which the curve crossed 50 POC was determined through interpolation (Graphpad Prism 9, San Diego, CA, USA). Additionally initial rate of degradation was determined by multiplying 100 with rate constant (τ = 0.693/t1/2).

A further assay has as its target T4, SMARCA2-NanoLuc (Homo sapiens, UniProt P51531).
T4 construct: expressed in transfected cells; host or cells: HEK293
As to the kind of experiment: NanoBRET target engagement assay, live and permeabilized HEK293 cells (SMARCA2). The assay is classed as cell-based. The conditions noted are these: SMARCA2 NanoBRET TE. Here is the method:
We employed a NanoBRET-based target engagement (TE) assay as reported earlier^7 for evaluating PROTACs relative permeability. In summary, live and permeabilized HEK293 cells with SMARCA2 or BRD4-NanoLuc were used for measuring IC50 values of different PROTACs. The relative shift in the IC50 was evaluated as relative binding affinity (RBA) by taking the ratio of IC50 values of live and permeabilized cells. Availability index (AI), which is a surrogate for permeability can be calculated by taking a ratio of RBA of compounds to permeable benchmark molecules. We used SMARCA bromodomain binding ligand^8 for SMARCA2 PROTACs and JQ1^9, 10 for BRD4 PROTACs as benchmark molecules.
Relative Binding Affinity (RBA) = Live-cell TE IC50 / Permeabilized-cell TE IC50
Availability Index (AI) = RBAtest cmpd / RBApermeable benchmark
Availability Index (AI) greater than one is indicative of reduced permeability compared to the benchmark.
On the technique in general: In BRET a luciferase serves as donor, and the signal depends on an acceptor being close.

[2] abbreviates: live HEK293 cells, read-out: Live-Cell TE IC50.
Setting [3] is: permeabilized HEK293 cells, read-out: Permeabilized-Cell TE IC50.

Read-outs that look alike come from different tables or passages of the source.

T4 sequence (P51531 whole entry): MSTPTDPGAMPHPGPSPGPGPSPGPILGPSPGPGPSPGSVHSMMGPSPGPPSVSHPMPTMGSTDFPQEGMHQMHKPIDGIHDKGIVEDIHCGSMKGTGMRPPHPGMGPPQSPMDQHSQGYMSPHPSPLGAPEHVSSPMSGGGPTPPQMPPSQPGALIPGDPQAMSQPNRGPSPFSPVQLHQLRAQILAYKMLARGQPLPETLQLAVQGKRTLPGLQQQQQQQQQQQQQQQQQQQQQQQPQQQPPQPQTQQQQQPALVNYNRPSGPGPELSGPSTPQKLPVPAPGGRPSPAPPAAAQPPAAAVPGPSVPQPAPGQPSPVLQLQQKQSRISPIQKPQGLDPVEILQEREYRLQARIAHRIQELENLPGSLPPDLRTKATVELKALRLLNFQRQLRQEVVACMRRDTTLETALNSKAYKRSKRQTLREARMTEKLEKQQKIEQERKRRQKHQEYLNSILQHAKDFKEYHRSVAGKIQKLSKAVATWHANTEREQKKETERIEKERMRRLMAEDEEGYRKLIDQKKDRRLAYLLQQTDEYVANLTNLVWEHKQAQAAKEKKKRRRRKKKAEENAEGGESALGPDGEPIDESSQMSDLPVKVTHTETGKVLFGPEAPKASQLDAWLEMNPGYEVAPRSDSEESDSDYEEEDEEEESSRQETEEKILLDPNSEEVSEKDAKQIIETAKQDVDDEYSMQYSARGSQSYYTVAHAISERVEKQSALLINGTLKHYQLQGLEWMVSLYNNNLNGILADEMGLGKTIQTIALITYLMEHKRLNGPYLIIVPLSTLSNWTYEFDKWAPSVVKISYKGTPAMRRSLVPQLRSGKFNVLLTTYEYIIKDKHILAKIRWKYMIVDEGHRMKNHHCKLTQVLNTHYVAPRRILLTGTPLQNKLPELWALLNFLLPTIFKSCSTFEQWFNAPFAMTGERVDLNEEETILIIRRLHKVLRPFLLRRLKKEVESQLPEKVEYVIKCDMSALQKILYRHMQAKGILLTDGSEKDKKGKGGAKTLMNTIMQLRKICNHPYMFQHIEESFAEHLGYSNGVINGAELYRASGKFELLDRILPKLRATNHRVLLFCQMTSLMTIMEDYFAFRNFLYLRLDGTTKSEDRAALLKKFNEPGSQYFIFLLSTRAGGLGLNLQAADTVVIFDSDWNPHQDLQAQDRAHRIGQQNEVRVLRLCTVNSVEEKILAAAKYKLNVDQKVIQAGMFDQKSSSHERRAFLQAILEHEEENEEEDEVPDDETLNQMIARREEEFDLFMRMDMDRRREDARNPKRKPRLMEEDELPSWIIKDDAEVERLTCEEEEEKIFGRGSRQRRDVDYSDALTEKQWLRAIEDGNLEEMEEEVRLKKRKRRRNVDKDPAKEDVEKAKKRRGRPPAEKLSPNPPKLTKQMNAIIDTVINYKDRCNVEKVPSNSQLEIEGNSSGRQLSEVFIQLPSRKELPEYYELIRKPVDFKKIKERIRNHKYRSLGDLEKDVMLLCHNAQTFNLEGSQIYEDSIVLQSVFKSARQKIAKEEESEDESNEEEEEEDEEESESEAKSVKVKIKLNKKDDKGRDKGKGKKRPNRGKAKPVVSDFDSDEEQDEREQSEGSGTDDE
T3 sequence (P51531 whole entry): as above
T2 sequence (P51531 1373-1493 isoform P51531-2): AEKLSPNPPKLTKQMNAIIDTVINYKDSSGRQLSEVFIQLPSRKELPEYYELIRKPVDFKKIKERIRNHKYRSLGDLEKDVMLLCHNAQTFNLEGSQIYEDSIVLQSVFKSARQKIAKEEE
T1 sequence (P40337 54-213): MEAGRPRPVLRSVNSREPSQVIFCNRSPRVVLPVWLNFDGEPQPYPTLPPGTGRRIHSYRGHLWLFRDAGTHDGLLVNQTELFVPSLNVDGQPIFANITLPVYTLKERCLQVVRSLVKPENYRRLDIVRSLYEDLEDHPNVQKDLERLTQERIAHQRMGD
T1 sequence (P51531 other isoform, or with tags, fused parts or gaps): as the sequence (P51531 1373-1493 isoform P51531-2) above
T1 sequence (Q15370 1-104, further chain): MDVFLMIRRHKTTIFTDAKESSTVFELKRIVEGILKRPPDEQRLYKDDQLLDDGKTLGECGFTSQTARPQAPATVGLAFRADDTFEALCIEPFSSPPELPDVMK
T1 sequence (Q15369 17-112, further chain): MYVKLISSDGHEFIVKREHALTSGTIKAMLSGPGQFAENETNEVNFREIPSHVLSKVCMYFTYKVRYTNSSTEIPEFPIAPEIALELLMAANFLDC

In the case of `Cc1ncsc1-c1ccc(CNC(=O)C2C[C@@H](O)CN2C(=O)C(NC(=O)C2(F)CC2)C(C)(C)C)c(OCCc2ccc(CN3CCN(c4cc(-c5ccccc5O)nnc4N)CC3)cc2)c1` (stereo in doubt) [Compound 11, (2R,4R)-N-(2-(4-((4-(3-amino-6-(2-hydroxyphenyl)pyridazin-4-yl)piperazin-1-yl)methyl)phenethoxy)-4-(4-methylthiazol-5-yl)benzyl)-1-((R)-2-(1-fluorocyclopropane-1-carboxamido)-3,3-dimethylbutanoyl)-4-hydroxypyrrolidine-2-carboxamide, reference compound], the “α (cooperativity, KLP/KLPT)” value in assay [1] is on record as 0.55. Further, the Kd in assay [1] was found to be 108 ± 14 nM; on SMARCA2^BD, 302 ± 80 nM. Besides, the “Initial Degradation Rate” value on SMARCA2 is 0.25 %/min. Moreover, the IC50 (commonly the concentration that gives 50% inhibition) at SMARCA2-NanoLuc (setting [2]) was 980 nM; at SMARCA2-NanoLuc (setting [3]), 740 nM.
For `Cc1ncsc1-c1ccc([C@H](C)NC(=O)[C@@H]2C[C@@H](O)CN2C(=O)[C@@H](NC(=O)c2ccnc(N3CCN(c4cc(-c5ccccc5O)nnc4N)CC3)c2)C(C)(C)C)cc1` [Compound 1, 2-(4-(3-Amino-6-(2-hydroxyphenyl)pyridazin-4-yl)piperazin-1-yl)-N-((S)-1-((2S,4R)-4-hydroxy-2-(((S)-1-(4-(4-methylthiazol-5-yl)phenyl)ethyl)carbamoyl)pyrrolidin-1-yl)-3,3-dimethyl-1-oxobutan-2-yl)isonicotinamide], in assay [1], the “α (cooperativity, KLP/KLPT)” value is 12.8. Further, the Kd in assay [1] was determined as 4.7 ± 1 nM; at SMARCA2^BD, 95 ± 25.5 nM. For the same compound, the “Initial Degradation Rate” value at SMARCA2 is 1.9 %/min. Besides, the IC50 on SMARCA2-NanoLuc (setting [2]) was 200 nM; at SMARCA2-NanoLuc (setting [3]), 150 nM.
For the compound `Cc1ncsc1-c1ccc([C@H](C)NC(=O)[C@@H]2C[C@@H](O)CN2C(=O)[C@@H](NC(=O)c2cccc(N3CCN(c4cc(-c5ccccc5O)nnc4N)CC3)n2)C(C)(C)C)cc1` [Compound 2, 6-(4-(3-Amino-6-(2-hydroxyphenyl)pyridazin-4-yl)piperazin-1-yl)-N-((S)-1-((2S,4R)-4-hydroxy-2-(((S)-1-(4-(4-methylthiazol-5-yl)phenyl)ethyl)carbamoyl)pyrrolidin-1-yl)-3,3-dimethyl-1-oxobutan-2-yl)picolinamide], the “α (cooperativity, KLP/KLPT)” value in assay [1] is 6.5. The results for the Kd (in assay [1]; on SMARCA2^BD) were 33 ± 4 nM and 196 ± 23 nM, respectively. For the same compound, on SMARCA2, the “Initial Degradation Rate” value is 2.02 %/min. For the same compound, the IC50 on SMARCA2-NanoLuc (setting [2]) is 400 nM; on SMARCA2-NanoLuc (setting [3]), 200 nM.
In the case of `Cc1ncsc1-c1ccc([C@H](C)NC(=O)[C@@H]2C[C@@H](O)CN2C(=O)[C@@H](NC(=O)c2cccc(N3CCN(c4cc(-c5ccccc5O)nnc4N)CC3)c2)C(C)(C)C)cc1` [Compound 4, (2S,4R)-1-((S)-2-(3-(4-(3-Amino-6-(2-hydroxyphenyl)pyridazin-4-yl)piperazin-1-yl)benzamido)-3,3-dimethylbutanoyl)-4-hydroxy-N-((S)-1-(4-(4-methylthiazol-5-yl)phenyl)ethyl)pyrrolidine-2-carboxamide], the “α (cooperativity, KLP/KLPT)” value in assay [1] was 2.6. In addition, the Kd in assay [1] was 64 ± 7 nM; at SMARCA2^BD, 232 ± 35 nM. Also, the “Initial Degradation Rate” value on SMARCA2 is listed as 2.06 %/min. The IC50 at SMARCA2-NanoLuc (setting [2]) was 820 nM; at SMARCA2-NanoLuc (setting [3]), 750 nM.
On to `Cc1ncsc1-c1ccc([C@H](C)NC(=O)[C@@H]2C[C@@H](O)CN2C(=O)[C@@H](NC(=O)c2csc(N3CCN(c4cc(-c5ccccc5O)nnc4N)CC3)n2)C(C)(C)C)cc1` [Compound 5, 2-(4-(3-Amino-6-(2-hydroxyphenyl)pyridazin-4-yl)piperazin-1-yl)-N-((S)-1-((2S,4R)-4-hydroxy-2-(((S)-1-(4-(4-methylthiazol-5-yl)phenyl)ethyl)carbamoyl)pyrrolidin-1-yl)-3,3-dimethyl-1-oxobutan-2-yl)thiazole-4-carboxamide], for which, in assay [1], the “α (cooperativity, KLP/KLPT)” value is listed as 1.8. Further, the figures for the Kd (in assay [1]; at SMARCA2^BD) were 46.8 ± 6.7 nM and 206 ± 34 nM, respectively. Further, the “Initial Degradation Rate” value on SMARCA2 was determined as 1.9 %/min. Further, the IC50 at SMARCA2-NanoLuc (setting [2]) was 1260 nM; at SMARCA2-NanoLuc (setting [3]), 400 nM.
